Assay results taken from PMC5430633, “Phosphorylation of the mitochondrial autophagy receptor Nix enhances its interaction with LC3 proteins” (Scientific Reports, 2017).

What was measured:
[1] = tested on: GFP-LC3B K51A; assay: Co-immunoprecipitation with GFP-LC3B K51A; assay type: binding, human; settings: α-GFP IP, Western blot
Experimental: (§1) Cells were scraped, centrifuged at 500 g for 5 min, and lysed in 150 µL CHAPS lysis buffer (2% CHAPS, 1% Triton X-100, 137 mM NaCl, 2 mM EDTA, 10% glycerol, and 20 mM Tris-HCl, pH 8.0) containing protease and phosphatase inhibitors. 5 µL of total lysate was kept as Input sample and 145 µL of cell lysate was incubated with 12.5 µL α-GFP (1:40, Roche)-coupled Dynabeads Protein G (purchased from Invitrogen) for 2 hrs at 4 °C. This step was followed by three washing steps using 0.02% Tween-20/PBS and immunoprecipitated proteins were eluted from Dynabeads by adding 4X LDS buffer (purchased from Invitrogen) and 10X sample reducing agent (purchased from Invitrogen) to the beads. Heating at 70 °C for 10 min will denaturized the proteins to analyze them by Western blotting.

[2] = tested on: EGFP-LC3B K49A; assay: Co-immunoprecipitation with EGFP-LC3B K49A; assay type: binding, human; settings: Figs S3 and S7; vs wild type LC3B
Experimental: as §1

[3] = tested on: HeLa cells expressing GFP-LC3B wild type; assay: Colocalization / sequestration of mitochondria with GFP-LC3B wild type, fluorescence microscopy; assay type: cell-based; settings: Fig. 4a
Experimental: (§2) HeLa cells were seeded, grown on coverslips or 8-well microscopy slides (ibidi) and transfected with either wild type or mutant Nix or Bnip3 together with wild type or mutant LC3B constructs using JetPRIME transfection reagent according to manufacturer’s instructions. 24 hrs post transfection cells were fixed in 2% or 4% paraformaldehyde and permeabilized with 0,1% Triton X-100 solution. Cells were blocked in 5% BSA/PBS/0.1% Triton X-100 for 1 hr at room temperature or 4 °C overnight. Primary and secondary antibodies were diluted in blocking solution and washed in 0,1% Triton X-100/PBS. Coverslips were mounted in Prolong mounting media (Invitrogen). Cells in 8-well microscopy slides were placed in PBS following staining. Cells were imaged using a Zeiss AxioVision or DeltaVision RT microscope system (Applied Precision). Quantification of Nix-LC3B colocalization was performed as follows: for each Nix construct, LC3B positive dots (signals) were numbered in 100 cells. Only clear and well-defined LC3B signals are taken into consideration, while weak and oversized signals were excluded from the analysis.
HeLa cells were plated in 8-well microscopy µ-slides (ibidi) were transfected GFP-LC3 and RFP-Nix WT, S34,35A or S34,35E. From Z-stacks, single cells were cropped for analysis by ImageJ. Binary masks for each slice within ≥10 representative Z-stacks per condition of (i) Nix-labeled mitochondria and (ii) GFP-LC3 were generated by image segmentation. Slice-by-slice co-localization of mitochondrial and AV masks were calculated using the Boolean AND function. All slices for each binary stack were summed, and the ratio of area calculated from mitochondrialy-localized AV over total mitochondria content is reported as a cellular fraction.

[4] = tested on: GFP-LC3B wild type; assay: Co-immunoprecipitation with GFP-LC3B wild type; assay type: binding, human; settings: α-GFP IP, Western blot
Experimental: as §1

[5] = tested on: GST-LC3B; assay: GST pull-down with GST-LC3B wild type; assay type: binding, human; settings: for interaction with GST-LC3B wild type: Flag-Nix in cell lysate, Fig. 3a; for interaction with GST-LC3B: Fig. 1b, triplicates
Experimental: (§3) GST fusions of various proteins (pGEX plasmids) were expressed in BL21 E. coli. Fusion protein expression was induced by adding 0.5 mM IPTG for 4 hrs. Bacteria were lysed in 20 mM Tris-HCl, pH 7.5, 10 mM EDTA, pH 8.0, 5 mM EGTA, 150 mM NaCl supplemented with 2 mg/ml lysozyme. GST fusion proteins were subsequently bound to pre-washed Glutathione-Sepharose 4B beads (GE Healthcare). After several washes, fusion protein-bound beads were used directly in binding assays.
(§4) HEK293 or HeLa cells were transfected with expression constructs encoding the protein of interest using JetPRIME (Polyplus Transfection). 24 hrs post-transfection cells were lysed in 50 mM HEPES, pH 7.5, 150 mM NaCl, 1 mM EDTA pH 8.0, 1 mM EGTA, 10% glycerol, 1% Triton X-100, 25 mM NaF, […] and lysates were incubated for 4 hrs with immobilized GST-fusion proteins at 4 °C. Following 5 washes, beads with co-precipitated proteins were resuspended in 2x SDS-PAGE loading buffer, boiled and loaded onto 10% or 12% SDS-PAGE gels for analysis. All GST pull-down experiments were performed in triplicates.

[6] = tested on: GST-LC3B K49A; assay: GST pull-down with GST-LC3B K49A; assay type: binding, human; settings: Fig. 3a, vs wild type LC3B
Experimental: as §3, §4

[7] = tested on: HEK293 cells (mitochondrial loss); assay: Mitochondrial removal by flow cytometry; assay type: cell-based; settings: HEK293, GFP-Nix, 10 μM CCCP 24 hours; vs wild type
Experimental: HEK293 cells were transfected with GFP expression constructs encoding the protein of interest using JetPRIME (Polyplus Transfection). 24 hrs post-transfection cells were treated with 10 µM CCCP for 24 hrs. After treatment, cells were washed with PBS, trypsinized with trypsin for 5 min and resuspended by gentle pipetting. Trypsin-mediated digestion was arrested by the addition of DMEM supplemented with 10% FBS and cells were centrifuged at 500 g for 5 min. To remove cell clumps, cells were resuspended in PBS and filtered through the 70 µm Cell Strainer (BD Falcon). Approximately 10^6 cells were acquired for further flow cytometry analysis. Before fixation, cells were washed twice with FACS buffer (2% FBS, 0,02% NaN3 in PBS) and each time centrifuged at 500 g for 5 min. Cells were fixed with freshly prepared 4% paraformaldehyde for 10 min at room temperature, washed twice with FACS buffer and finally resuspended in […] prior to analysis. […] The acquired data were gated for singlets by generating FSC-A vs FSC-H plot after which dead cells were excluded and the mean fluorescence in FL1 channel was collected. The mean fluorescence of the CCCP and CCCP/Baf treated samples was compared with the untreated control and the results were expressed as a percentage of the retained mitochondria of at least two independent experiments. Results were analyzed using FlowLogic software.

[8] = tested on: EGFP-LC3B R10A; assay: Co-immunoprecipitation with EGFP-LC3B R10A; assay type: binding, human; settings: α-GFP IP, 24 hrs post transfection, Fig. S5a
Experimental: as §1

[9] = tested on: EGFP-LC3B R11A; assay: Co-immunoprecipitation with EGFP-LC3B R11A; assay type: binding, human; settings: α-GFP IP, 24 hrs post transfection, Fig. S5a
Experimental: as §1

[10] = tested on: GST-LC3B; settings: ref [17]; cited from earlier work
Experimental: Recently, it was determined that phosphorylation of serine residues juxtaposed to the LIR motif is responsible for the activation of receptor functions for Optn and Bnip3[5],[14]. […] Therefore, we mutated Ser34 and Ser35 in Nix to alanine, glutamic acid or aspartic acid re ...

[11] = tested on: HeLa cells expressing GFP-LC3B K51A; assay: Colocalization with GFP-LC3B K51A, fluorescence microscopy; assay type: cell-based; settings: Fig. 4d,e
Experimental: as §2, with “Only clear and well-defined LC3B signals are taken into consideration, while weak and oversized signals were excluded from the analysis.” left out
HeLa cells were plated in 8-well microscopy µ-slides (ibidi) were transfected GFP-LC3 and RFP-Nix WT, S34,35A or S34,35E. […] Slice-by-slice co-localization of mitochondrial and AV masks were calculated using the Boolean AND function. All slices for each binary stack were summed, and the ratio of area calculated from mitochondrialy-localized AV over total mitochondria content is reported as a cellular fraction.

[12] = tested on: cells expressing LC3B K49A; assay: Colocalization with LC3B K49A, fluorescence microscopy; assay type: cell-based; settings: vs wild type LC3B
Experimental: as §2

[13] = tested on: HeLa cells (recruitment of LC3B to mitochondria); assay: LC3B positive vesicles per 100 cells, immunofluorescence microscopy; assay type: cell-based; settings: 10 µM CCCP for 2 hours, vs wild type and S34,35A, three independent experiments, Fig. 3b
Experimental: as §2

[14] = tested on: GST-LC3A; assay: GST pull-down with GST-LC3A; assay type: binding, human; settings: Fig. 1b, triplicates
Experimental: as §3, §4

[15] = target: T1, LC3B wild type (Homo sapiens, UniProt Q9GZQ8); assay: Isothermal titration calorimetry (ITC), LC3B wild type; assay type: binding
T1 construct: Ub3 (ubiquitin fusion) (N); made in house
Experimental: (§5) Before the experiment, the proteins and peptides were equilibrated with a buffer containing 40 mM Na2HPO4, 80 mM NaCl at pH 7.0, and supplied with 5 mM protease inhibitors cocktail.
(§6) All titration experiments were performed at 25 °C using a VP-ITC microcalorimeter (MicroCal Inc., MA, USA). The ITC-data were analyzed with the ITC-Origin 7.0 software with a “one-site” binding model. The peptides at concentrations of 0.31 mM were titrated into 0.018 mM LC3B proteins in 25 steps. The proteins and peptides concentrations were calculated from the UV-absorption at 280 nm by Nanodrop spectrophotometer (Thermo Fisher Scientific, DE, USA).

[16] = target: T2, LC3B K49A (Homo sapiens, UniProt Q9GZQ8, K49A); assay: ITC, LC3B K49A mutant; assay type: binding
T2 construct: Ub3 (ubiquitin fusion) (N); made in house
Experimental: as §5, §6

Bnip3 wild type: mitophagy receptor Bnip3, homolog of Nix [reference compound]
co-immunoprecipitation with GFP-LC3B K51A [1]: does not | affinity to LC3B K49A (in words) [2]: increased affinity

Nix S34,35A: Nix with serine-to-alanine mutations to disable phosphorylation
targeting of mitochondria to LC3B autophagosomes / colocalization with GFP-LC3B [3]: lack of such a recruitment | targeting of mitochondria to LC3B autophagosomes / colocalization with GFP-LC3B ([3]; listed as RFP-Nix S34,35A): does not colocalize | co-immunoprecipitation with GFP-LC3B wild type [4]: no interaction | interaction with GST-LC3B wild type [5]: did not interact | interaction with GST-LC3B K49A [6]: strongly increased binding | mitochondrial loss (fraction of removed mitochondria), in words [7]: slightly reduced compared to wild type

Nix wild type: mitophagy receptor Nix, wild type, expressed in cells
co-immunoprecipitation with LC3B R10A [8]: do not coimmunoprecipitate | co-immunoprecipitation with LC3B R11A [9]: do not coimmunoprecipitate | targeting of mitochondria to LC3B autophagosomes / colocalization with GFP-LC3B [3]: shows colocalization | co-immunoprecipitation with GFP-LC3B K51A [1]: fails to coimmunoprecipitate | interaction rank of LC3B among Nix partners [10]: weakest | co-immunoprecipitation with GFP-LC3B wild type [4]: no interaction | colocalization with GFP-LC3B K51A [11]: does not colocalize | interaction with GST-LC3B [5]: considerably weaker than with LC3A | interaction with GST-LC3B K49A ([6]; listed as Nix): increased affinity | interaction with GST-LC3B K49A ([6]; listed as wild type Nix): strongly increased binding

Nix S34,35E: phosphomimetic Nix double mutant
targeting of mitochondria to LC3B autophagosomes / colocalization with GFP-LC3B [3]: enhanced targeting of mitochondria to LC3B autophagosomes relative to wild type Nix | targeting of mitochondria to LC3B autophagosomes / colocalization with GFP-LC3B ([3]; listed as S34,35E): enhanced colocalization | co-immunoprecipitation with GFP-LC3B K51A [1]: unable to immunoprecipitate | colocalization with LC3B K49A [12]: increased | co-immunoprecipitation with GFP-LC3B wild type [4]: strong interaction | colocalization with GFP-LC3B K51A [11]: loss of cellular colocalization | interaction with GST-LC3B wild type [5]: robustly bound | recruitment of LC3B-positive vesicles [13]: increased recruitment of LC3B-positive vesicles compared to wild type and S34,35A | mitochondrial loss (fraction of removed mitochondria), in words [7]: more rapid

Bnip3S17,24E: Bnip3 S17,24E mutant [reference compound]
co-immunoprecipitation with GFP-LC3B K51A [1]: absent | co-immunoprecipitation with GFP-LC3B wild type [4]: strongly bound

Nix S34,35D: phosphomimetic Nix double mutant
recruitment of LC3B-positive vesicles [13]: increased recruitment of LC3B-positive vesicles compared to wild type and S34,35A

Nix S35E: single phosphomimetic Nix mutant
interaction with GST-LC3A [14]: stronger than wild type Nix but weaker than the double serine phosphomimetic S34,35D Nix mutant | interaction with GST-LC3B [5]: stronger than wild type Nix but weaker than the double serine phosphomimetic S34,35D Nix mutant

Nix S34E: single phosphomimetic Nix mutant
interaction with GST-LC3A [14]: stronger than wild type Nix but weaker than the double serine phosphomimetic S34,35D Nix mutant | interaction with GST-LC3B [5]: stronger than wild type Nix but weaker than the double serine phosphomimetic S34,35D Nix mutant

SQQGGWGTVFSLESEE [arbitrary LIR-similar peptide, residues 196–210 of the human protein BCL2L13 - analog of the yeast Atg32 protein]
affinity to wild type LC3B (in words) [15]: weak | affinity to LC3B K49A (in words) [16]: weak
